Results on twelve compounds are retold here after ChEMBL document CHEMBL1201862, “PubChem BioAssay data set” (2004).

Among the test systems are HOP-92; HCT-15; A498; SK-MEL-5; SN12C; SK-OV-3; KM12; SF-268; MOLT-4; SR; RPMI-8226; UACC-62; COLO 205; SW-620; TK-10; DMS-273; Malme-3M; NCI-H226; BT-549; MDA-MB-435.
Common to all, as to assay: NCI tumour cell line growth inhibition, 48 h

The structures appear in SMILES notation.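 How tested: cells in 96-well plates exposed to compound for 48 hours at five concentrations. GI50 marks 50% less growth.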 Calls of active or inactive are those of the source. Rule as the data show it: active = GI50 up to about 1.1 µM and inactive = higher.

`CC(C)CC(NC(=O)OC(C)(C)C)C(=O)Nc1ccc(Nc2nc(F)nc(-c3c4ccccc4c4n3CCS4)n2)cc1` (centres undefined): the GI50 is 18.8 µM (inactive) in the assay on HOP-92; 16.3 µM in the assay with HCT-15; 26.2 µM (inactive) in the assay on A498; 23.7 µM (inactive) with SK-MEL-5; 21.6 µM (inactive) in the assay on SN12C; 18.8 µM (inactive) with SK-OV-3. In addition, the GI50 in the assay on KM12 was 26.7 µM (inactive); in the assay with SF-268 it was 31.4 µM (inactive); in the assay with MOLT-4 it was 16 µM (inactive); with SR, 14.1 µM (inactive); with RPMI-8226, 24.4 µM (inactive); with UACC-62, 17.2 µM (inactive). In addition, the GI50 was 18.9 µM (inactive) in the assay on COLO 205; 16.1 µM (inactive) in the assay with SW-620; 28.8 µM (inactive) with TK-10; 16.9 µM (inactive) with DMS-273; 21.2 µM (inactive) in the assay with Malme-3M.

With `COc1cc2ccc(=O)oc2cc1O` [SCOPOLETIN], the GI50 in the assay with NCI-H226 is 86.3 µM (inactive); with HOP-92, 206 µM (inactive); with HCT-15 it was 25.1 µM; in the assay with A498 it was 80.4 µM (inactive); in the assay with SK-MEL-5 it was 78 µM (inactive); in the assay on SN12C, 51.4 µM (inactive). Moreover, the GI50 is 94.2 µM (inactive) in the assay with SK-OV-3; 36.1 µM (inactive) in the assay with KM12; > 100 µM (inactive) with BT-549; 92.3 µM (inactive) with SF-268; 28.8 µM (inactive) with MOLT-4; > 100 µM (inactive) with SR. In addition, the GI50 in the assay with RPMI-8226 is 46.1 µM (inactive); with UACC-62 it was 71.3 µM (inactive); with COLO 205 it was 142 µM (inactive); in the assay with SW-620 it was 67.3 µM (inactive); in the assay on TK-10, > 100 µM (inactive); in the assay with DMS-273, 36.3 µM (inactive). Besides, the GI50 was > 100 µM (inactive) with MDA-MB-435 and 156 µM (inactive) in the assay on Malme-3M.

Take `COC(=O)C12C3C4C5(C(=O)OC)C(C1C35C(=O)N(C(C)C)C(C)C)C42C(=O)N(C(C)C)C(C)C` (centres undefined): the GI50 was > 50 µM (inactive) with NCI-H226; > 50 µM (inactive) in the assay with HOP-92; more than 23.3 µM with HCT-15; > 50 µM (inactive) with A498; > 50 µM (inactive) in the assay with SK-MEL-5; > 50 µM (inactive) with SN12C. Besides, the GI50 is > 50 µM (inactive) in the assay with SK-OV-3; > 50 µM (inactive) with KM12; > 50 µM (inactive) in the assay on SF-268; > 50 µM (inactive) in the assay on MOLT-4; > 50 µM (inactive) with SR; > 36.3 µM (inactive) with RPMI-8226. For the same compound, the GI50 in the assay on UACC-62 is > 50 µM (inactive); with COLO 205, > 50 µM (inactive); with SW-620, > 25.5 µM (inactive); in the assay on TK-10, > 50 µM (inactive); in the assay with DMS-273 it was > 30.8 µM (inactive); in the assay on Malme-3M, > 50 µM (inactive).

Turning to `CCCN(CCC)C(=O)Cc1c2n(c3ccccc13)CCCc1ccccc1-2`, the GI50 in the assay with NCI-H226 is 15.1 µM (inactive); in the assay on HOP-92, 4.2 µM (inactive); in the assay with HCT-15, 11.6 µM; in the assay with SK-MEL-5, 14.3 µM (inactive); with SN12C it was 15.5 µM (inactive); in the assay with SK-OV-3, 15.2 µM (inactive). Also, the GI50 in the assay on KM12 was 12.6 µM (inactive); in the assay on SF-268, 15.1 µM (inactive); in the assay with MOLT-4, 12.9 µM (inactive); with SR, 5.21 µM (inactive); with RPMI-8226 it was 14.4 µM (inactive); with UACC-62, 11 µM (inactive). For the same compound, the GI50 is 15.5 µM (inactive) in the assay with COLO 205; 16.6 µM (inactive) in the assay with SW-620; 15.7 µM (inactive) in the assay with TK-10; 11 µM (inactive) with DMS-273; 13.9 µM (inactive) in the assay on Malme-3M.

For the compound `O=C(Nc1ccc(Cl)cc1)c1cccc([N+](=O)[O-])c1O`, the GI50 in the assay on NCI-H226 was 2.33 µM (inactive); with HOP-92, 1.61 µM (inactive); in the assay on HCT-15, 4.84 µM; in the assay with A498 it was 1.95 µM (inactive); in the assay on SK-MEL-5, 1.75 µM (inactive); with SN12C it was 4.09 µM (inactive). The GI50 is 2.96 µM (inactive) in the assay with SK-OV-3; 4.53 µM (inactive) with KM12; 4.67 µM (inactive) in the assay on SF-268; 2.5 µM (inactive) in the assay with MOLT-4; 4.76 µM (inactive) with SR; 1.6 µM (inactive) with RPMI-8226. The GI50 in the assay on UACC-62 was 1.85 µM (inactive); in the assay with COLO 205, 2.91 µM (inactive); in the assay on SW-620, 4.81 µM (inactive); in the assay on TK-10, 3.72 µM (inactive); in the assay with DMS-273, 3.13 µM (inactive); in the assay with Malme-3M, 1.37 µM (inactive).

Regarding `O=C(Cc1ccccc1F)NC1=C(Cl)C(=O)c2ccccc2C1=O`, the GI50 in the assay on NCI-H226 was 1.74 µM (inactive); in the assay with HOP-92 it was 0.887 µM (active); in the assay on HCT-15 it was 0.54 µM; in the assay on A498, 4.69 µM (inactive); in the assay with SK-MEL-5, 1.06 µM (active); in the assay on SN12C, 3.18 µM (inactive). Also, the GI50 with SK-OV-3 is 3.04 µM (inactive); in the assay with KM12, 0.524 µM (active); with BT-549 it was 1.36 µM (inactive); in the assay on MOLT-4, 1.06 µM (active); in the assay with SR, 0.578 µM (active); in the assay with RPMI-8226 it was 0.436 µM (active). Further, the GI50 in the assay on UACC-62 is 0.481 µM (active); in the assay on COLO 205, 3.23 µM (inactive); in the assay with SW-620, 0.721 µM (active); in the assay with TK-10, 2.4 µM (inactive); in the assay with DMS-273, 1.52 µM (inactive); in the assay with MDA-MB-435, 2.77 µM (inactive). Moreover, the GI50 in the assay with Malme-3M is 1.35 µM (inactive).

`COC(=O)C(=O)C(C(=O)OC)C(=O)C(=O)Nc1cc(Cl)c(C)cc1S(=O)(=O)O` (centres undefined): the GI50 in the assay with NCI-H226 was > 100 µM (inactive); with HCT-15 it was more than 100 µM; with A498, > 100 µM (inactive); in the assay on SK-MEL-5 it was > 100 µM (inactive); in the assay on SN12C, > 100 µM (inactive); in the assay on SK-OV-3, > 100 µM (inactive). For the same compound, the GI50 in the assay with KM12, with SF-268, in the assay with MOLT-4, in the assay on SR, in the assay on UACC-62 and in the assay with COLO 205 was > 100 µM (inactive) each time. Besides, the GI50 with SW-620, in the assay on TK-10, in the assay with DMS-273 and with Malme-3M was > 100 µM (inactive) throughout.

Consider `COc1ccc2c(c1)CCN1C3=C(CCC3)C(=O)C[C@@H]21`, for which the GI50 in the assay with NCI-H226 is > 100 µM (inactive); with HOP-92 it was > 100 µM (inactive); with HCT-15, more than 100 µM; in the assay on A498, 62.2 µM (inactive); with SK-MEL-5 it was > 100 µM (inactive); with SN12C, > 100 µM (inactive). The GI50 in the assay on SK-OV-3 is > 100 µM (inactive); with KM12, > 100 µM (inactive); in the assay with SF-268, > 100 µM (inactive); in the assay with MOLT-4, > 100 µM (inactive); with SR, 31.1 µM (inactive); in the assay with RPMI-8226, > 100 µM (inactive). The GI50 was > 100 µM (inactive) in the assay with UACC-62; > 100 µM (inactive) with COLO 205; > 100 µM (inactive) in the assay with SW-620; 44.7 µM (inactive) in the assay on TK-10; > 100 µM (inactive) with DMS-273; > 100 µM (inactive) with Malme-3M.

For the compound `C=C1C(C(=O)O)C1C(=O)O` (centres undefined), the GI50 was 21.1 µM (inactive) in the assay with NCI-H226; > 100 µM (inactive) with HOP-92; more than 100 µM with HCT-15; > 100 µM (inactive) in the assay with A498; > 100 µM (inactive) with SK-MEL-5; > 100 µM (inactive) in the assay with SN12C. Further, the GI50 in the assay on SK-OV-3, in the assay on KM12, with SF-268, in the assay with MOLT-4, with SR and in the assay with RPMI-8226 was > 100 µM (inactive) throughout. Also, the GI50 with UACC-62, with SW-620, with TK-10, in the assay with DMS-273 and in the assay with Malme-3M was > 100 µM (inactive) in each case.

Take `CNC(=O)CN(CC(N)=O)C(=O)NC`: the GI50 in the assay with NCI-H226 was > 100 µM (inactive); in the assay with HOP-92, > 100 µM (inactive); in the assay with HCT-15 it was more than 100 µM; in the assay with A498, > 100 µM (inactive); with SK-MEL-5 it was > 100 µM (inactive); with SK-OV-3 it was > 100 µM (inactive). Further, the GI50 in the assay on KM12, with SF-268, in the assay with MOLT-4, in the assay with SR, in the assay on RPMI-8226 and with UACC-62 was > 100 µM (inactive) throughout. The GI50 in the assay with COLO 205, with SW-620, in the assay on TK-10, in the assay with DMS-273 and in the assay with Malme-3M was > 100 µM (inactive) throughout.

Take `COCCNC(=O)C1C(=O)C(=O)N(CCOC)C1=O` (centres undefined): the GI50 in the assay with NCI-H226 is > 100 µM (inactive); with HOP-92, > 100 µM (inactive); in the assay on HCT-15, more than 100 µM; with A498 it was > 100 µM (inactive); in the assay with SK-MEL-5, > 100 µM (inactive); in the assay on SN12C it was > 100 µM (inactive). Further, the GI50 with SK-OV-3, in the assay on SF-268, in the assay with SR, in the assay with UACC-62, with COLO 205 and with SW-620 was > 100 µM (inactive) in each case. Moreover, the GI50 in the assay on TK-10, in the assay with DMS-273 and in the assay with Malme-3M was > 100 µM (inactive) each time.

Consider `O=C(O)CCSC(=O)Nc1cccc([N+](=O)[O-])c1`, for which the GI50 in the assay with HCT-15 was 44.2 µM; in the assay on A498, > 100 µM (inactive); in the assay on SN12C, 94.6 µM (inactive); with KM12 it was > 100 µM (inactive); in the assay with SF-268, 17 µM (inactive); with MOLT-4 it was 43.7 µM (inactive). Further, the GI50 is > 100 µM (inactive) in the assay with SR; > 100 µM (inactive) in the assay on RPMI-8226; > 100 µM (inactive) in the assay on COLO 205; 92.9 µM (inactive) with SW-620; > 100 µM (inactive) in the assay with TK-10; > 100 µM (inactive) with DMS-273.
